Assay results from patent publication US8883824B2, “3-(4-aminophenyl)-2-furancarboxylic acid derivative and pharmaceutically acceptable salt thereof” (Sumitomo Dainippon Pharma Co., Ltd., priority 2009, dated 2014).
“Also recorded” adds a separate entry of the source. Counter-ions that a name gives are not always drawn.

Legend:
[1] = target: T1, glucagon receptor (rat hepatocyte membrane) (Rattus norvegicus, UniProt P30082); experiment: Glucagon receptor binding inhibition; conditions: SD rat liver cell membrane, 50 pM (3-[125I]iodotyrosyl10)glucagon, 25° C., 120 minutes; read-out: IC50 (nM) Rat, glucagon receptor binding inhibitory activity
T1 construct: A cell membrane was prepared from the liver of an SD rat; from tissue; host or cells: SD rat liver (cell membrane fraction)
T1 sequence (P30082 27-485): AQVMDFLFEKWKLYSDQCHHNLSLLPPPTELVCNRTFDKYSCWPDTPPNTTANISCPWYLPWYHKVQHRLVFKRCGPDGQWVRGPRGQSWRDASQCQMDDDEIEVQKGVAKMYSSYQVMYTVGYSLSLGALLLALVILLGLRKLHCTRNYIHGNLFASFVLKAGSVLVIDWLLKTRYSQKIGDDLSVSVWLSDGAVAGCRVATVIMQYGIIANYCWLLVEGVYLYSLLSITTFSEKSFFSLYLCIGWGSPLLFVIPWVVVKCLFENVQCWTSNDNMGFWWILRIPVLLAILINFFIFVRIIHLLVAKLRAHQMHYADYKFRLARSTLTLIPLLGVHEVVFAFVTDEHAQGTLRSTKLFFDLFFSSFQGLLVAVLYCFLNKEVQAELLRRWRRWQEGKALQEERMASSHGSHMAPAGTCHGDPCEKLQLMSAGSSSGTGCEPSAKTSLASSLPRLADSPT
Method: The composition of the reaction solution used in the receptor binding inhibition experiment was prepared according to the method described in Bioorg. Med. Chem. Lett., 1992, 12, 915-918, using the following methods. (3-[^125I] iodotyrosyl^10) Glucagon and a rat hepatocyte membrane were obtained or prepared according to the following methods.
(3-[^125I] iodotyrosyl^10)Glucagon was obtained according to the following method at PerkinElmer Co., Ltd (Great Britain). Using a chloramine T method, glucagon (Peptide Institute) was labeled with [^125I], and (3-[^1251] iodotyrosyl ^10)Glucagon was separated using HPLC. Purchased from PerkinElmer Co., Ltd. (Great Britain), was a product obtained by dissolving it in an aqueous solution containing 10 mM citric acid, 5% lactose, 0.2% cysteine HCl, and 0.25% BSA so that the radioactivity was 3.7 MBq/mL at reference date, followed by freeze-drying. The product was re-dissolved in a 0.3-TIU/mL aprotinin aqueous solution so that the radioactivity was 3.7 MBq/mL at reference date, and it was freeze-stored at −15 to −40° C. for use.
A cell membrane was prepared from the liver of an SD rat according to the method described on pages 31 to 33 of Zikken Seibutsugaku Kouza 6, Saibou bunkakuhou (Experimental Biology Lecture 6, Cell Fraction Method) (Maruzen Co., Ltd.). The resulting cell membrane was freeze-stored at −70 to −85° C. for use.
The cell membrane that had been dissolved at room temperature and then suspended using a Physcotron (Microtec Co., Ltd. was added to a 50-mM Tris-HCl buffer (pH 7.2) containing 1 mg/mL BSA (Sigma-Aldrich), 0.1 mg/mL bacitracin (Wako Pure Chemical Industries, Ltd.), 1% DMSO, 0.01% acetic acid, and 50 pM) (3-[^125I] iodotyrosyl^10) Glucagon (pH 7.2) (each value indicating the final concentration and the radioactivity of (3-[^125I] iodotyrosyl^10) Glucagon calculated on the measurement date) to give a total amount of 0.2 mL. The reaction was started and incubation was performed at 25° C. for 120 minutes. The concentration of the cell membrane was adjusted so that 10% of the added)(3-[^1251] iodotyrosyl^100 Glucagon was equal to the total amount of binding.
Using a GF/C filter (Whatman International Ltd., Great Britain) immersed for more than 15 minutes in 0.3% polyethyleneimine (Sigma-Aldrich, Co., LLC), whose pH was adjusted to 7.2 by adding hydrochloric acid, the reaction solution was subjected to suction filtration to recover (3-[^125I] iodotyrosyl)Glucagon bound to the membrane. The filter was washed 3 times with an ice-cooled 50-mM Tris-HCl buffer (pH 7.4), and the radioactivity of the filter was measured by using a γ counter (1470 WIZARD γ-counter)(Wallac). The amount of specific binding was measured by subtracting the amount of nonspecific binding determined in the presence of 10 μM glucagon (Peptide Institute, Inc.) from the total amount of binding.
The amount of specific binding in the absence of a test compound was regarded as 100%, and inhibitions (%) at various concentrations of test compounds were calculated. The concentration at 50% inhibition of binding (IC50) was calculated using a nonlinear least squares method.

ob/ob mice [2] = experiment: Combination use with metformin, HbA1c in ob/ob mice; format: in vivo; conditions: oral; for HbAlc value: single use, 4 weeks (Example 69 3 mg/kg twice a day; metformin 100 mg/kg twice a day)
Method: An experiment using the compound of Example 69 and metformin in combination was performed to examine the effect on the HbAlc value in ob/ob mice.
B6.V-Lepob/J (ob/ob) mice and control B6.V-Lepob/J (?/+) mice (male, 6 to 7 weeks old, n=8, Charles River Japan) were used. The compound of Example 69 (3 mg/kg, twice a day) suspended in 0.5% methyl cellulose, and metformin (100 mg/kg, twice a day) dissolved in the solvent were orally administered repeatedly for 4 weeks singly or in combination.

ob/ob mice [3] = experiment: Combination use with pioglitazone, HbA1c in ob/ob mice; format: in vivo; conditions: oral
Method: An experiment using the compound of Example 69 and pioglitazone in combination was performed to examine the effect on the HbAlc values in ob/ob mice.
B6.V-Lepob/J (ob/ob) mice and control B6.V-Lepob/J (?/+) mice (male, 6 to 7 weeks old, n=8, Charles River Japan) were used. The compound of Example 69 suspended in 0.5% methyl cellulose (3 mg/kg, twice a day), and pioglitazone (1 mg/kg, once a day) were orally administered repeatedly for 4 weeks singly or in combination.
The effects were compared based on the […] (HbA1c) value, and a diabetes-like state (prolonged hyperglycemic state) was confirmed by HbA1c increase in the ob/ob mice.

ob/ob mice [4] = experiment: Combination use with DPPIV inhibitor sitagliptin, postprandial hyperglycemia in ob/ob mice; format: in vivo
Method: B6.V-Lepob/J (ob/ob) mice and control B6.V-Lepob/J (?/+) mice (male, 6 to 7 weeks old, n=8, Charles River Japan) were used. […] One hour later, liquid food (ensure H, Abbott Japan, Co., Ltd., 1.5 kcal/mL) was orally administered. The blood sugar levels immediately before, and 15, 30, 60, and 90 minutes after administration of the liquid food were measured.

ob/ob mice [5] = experiment: Blood sugar decrease in ob/ob mice (hyperglycemia and impaired fasting glycemia); format: in vivo
Source text: Effects of the compound of Example 69 on hyperglycemia and impaired fasting glycemia in ob/ob mice, which are type II diabetes models, were examined.
B6.V-Lepob/J (ob/ob) mice and control B6.V-Lepob/J (?/+) mice (male, 6 to 7 weeks old, n=8, Charles River Japan Inc.) were used. To examine the effect on hyperglycemia, feed was removed from the cage at the same time as the start of drug administration, and to examine the effect on impaired fasting glycemia, feed was removed from the cage about 20 hours before the scheduled time of drug administration. Under each experimental condition, the mice were allowed free access to drinking water. 2, 4 and 6 hours after the forced oral administration of the compound (0.01-1.0 mg/kg) of Example 69, which had been suspended in 0.5% methyl cellulose, the blood sugar levels were examined.

[6] = combination use of Example 69 (0.1 mg/kg) and sitagliptin (5 mg/lm), single oral dose
[7] = single use, single oral dose (Example 69 0.1 mg/kg; sitagliptin 5 mg/lm) one hour before liquid food

Compound	IC50 [1]	other results
Cc1ccc([C@H](C)Nc2ccc(-c3ccoc3C(=O)NNC(=O)c3ccc(O)c([N+](=O)[O-])c3)cc2)cc1C [Example 71]	0.043 nM	
C[C@H](Nc1ccc(-c2ccoc2C(=O)NNC(=O)c2ccc(O)c([N+](=O)[O-])c2)cc1)c1ccccc1 [Example 78]	0.62 nM	
Cc1cc([C@H](C)Nc2ccc(-c3ccoc3C(=O)NNC(=O)c3ccc(O)c([N+](=O)[O-])c3)cc2)ccc1Cl [Example 75]	0.12 nM	
O=C(NNC(=O)c1occc1-c1ccc(NCc2ccc(OC(F)(F)F)cc2)cc1)c1ccc(O)c([N+](=O)[O-])c1 [Example 7]	0.34 nM	
C[C@H](Nc1ccc(-c2ccoc2C(=O)NNC(=O)c2ccc(O)c([N+](=O)[O-])c2)cc1)c1ccc(F)cc1 [Example 68, 3-(4-{[(1S)-1-(4-fluorophenyl)ethyl]amino}phenyl)-2-furan carboxylic acid-2-(4-hydroxy-3-nitrobenzoyl)hydrazide]	0.11 nM	
Cc1ccc([C@H](C)Nc2ccc(-c3ccoc3C(=O)NNC(=O)c3ccc(O)c([N+](=O)[O-])c3)cc2)cc1 [Example 69]	0.085 nM	HbAlc reduction effect versus single use (ob/ob mice [2]; combination use of Example 69 (3 mg/kg twice a day) and metformin (100 mg/kg twice a day), 4 weeks): higher HbAlc reduction effect; also recorded: extremely stronger HbAlc reduction effect; HbAlc value (ob/ob mice [2]): HbAlc reduction; HbA1c reduction effect versus single use (ob/ob mice [3]; combination use of Example 69 (3 mg/kg twice a day) and pioglitazone (1 mg/kg once a day), 4 weeks): higher HbA1c reduction effect; also recorded: extremely stronger HbA1c reduction effect; HbA1c value (ob/ob mice [3]; single use, 4 weeks (Example 69 3 mg/kg twice a day; pioglitazone 1 mg/kg once a day)): attained HbA1c reduction; area under the blood concentration-time curve (blood sugar) after liquid food (ob/ob mice [4]; [6]): normalized; blood sugar level 15 minutes after the administration of liquid food (ob/ob mice [4]; [6]): normalized; hypoglycemia (ob/ob mice [4]; [6]): without causing hypoglycemia; postprandial hyperglycemia inhibitory effect versus the single use of each agent (ob/ob mice [4]; combination use of Example 69 and sitagliptin (FIGS. 1 and 2)): extremely stronger postprandial hyperglycemia inhibitory effect; area under the blood concentration-time curve (blood sugar) after liquid food (ob/ob mice [4]; [7]): normalized; blood sugar increase 15 minutes after the administration of liquid food (ob/ob mice [4]; [7]): could not normalize; duration of the blood sugar decreasing effect (ob/ob mice [5]; high-dose administration, oral): continued even 6 hours after the administration; blood sugar level relative to the healthy (control) mouse (ob/ob mice [5]; oral 0.01-1.0 mg/kg): not reduced to below the level of the healthy mouse; blood sugar decreasing effect at 2 hours after administration (ob/ob mice [5]; oral 0.01-1.0 mg/kg, any dosage, under each experimental condition (hyperglycemia; impaired fasting glycemia)): remarkable blood sugar decreasing effect
CC(C)(C)c1ccc(CNc2ccc(-c3ccoc3C(=O)NNC(=O)c3ccc(O)c([N+](=O)[O-])c3)cc2)cc1 [Example 6]	0.13 nM	
CCc1ccc([C@H](C)Nc2ccc(-c3ccoc3C(=O)NNC(=O)c3ccc(O)c([N+](=O)[O-])c3)cc2)cc1 [Example 70]	0.13 nM	
C[C@@H](Nc1ccc(-c2ccoc2C(=O)NNC(=O)c2ccc(O)c([N+](=O)[O-])c2)cc1)c1ccc(F)cc1 [Example 76]	5.8 nM	
C[C@H](Nc1ccc(-c2ccoc2C(=O)NNC(=O)c2ccc(O)c([N+](=O)[O-])c2)cc1)C1CCCCC1 [Example 77]	0.35 nM	
Cc1cccc([C@H](C)Nc2ccc(-c3ccoc3C(=O)NNC(=O)c3ccc(O)c([N+](=O)[O-])c3)cc2)c1 [Example 73]	0.16 nM	
C[C@H](Nc1ccc(-c2ccoc2C(=O)NNC(=O)c2ccc(O)c([N+](=O)[O-])c2)cc1)c1ccc(Cl)cc1 [Example 72]	0.14 nM	
Cc1ccc(C(C)Nc2ccc(-c3ccoc3C(=O)NNC(=O)c3ccc(O)c([N+](=O)[O-])c3)cc2)cc1 (stereo not drawn) [Example 1, 3-(4-{[1-(4-methylphenyl)ethyl]amino}phenyl)-2-furan carboxylic acid-2-(4-hydroxy-3-nitrobenzoyl)hydrazide hydrochloride]	0.22 nM	
CN(C)C(=N)N=C(N)N [metformin, reference compound]		HbAlc value (ob/ob mice [2]): HbAlc reduction

Now from value to molecule, other results behind:

IC50 [1]	Compound	other results
2800 nM	N#Cc1cc(C(=O)NNC(=O)c2occc2-c2cccc(NC(=O)c3ccccc3)c2)ccc1O [Compound A, reference compound]	
9800 nM	N#Cc1cc(C(=O)NNC(=O)c2occc2-c2cccc(N)c2)ccc1O [Compound E, reference compound]	
400 nM	N#Cc1cc(C(=O)NNC(=O)c2occc2-c2cccc(NC(=O)OCc3ccccc3)c2)ccc1O [Compound D, reference compound]	
1200 nM	CC(=O)N(Cc1ccccc1)c1cccc(-c2ccoc2C(=O)NNC(=O)c2ccc(O)c(C#N)c2)c1 [Compound B, reference compound]	
340 nM	CC(=O)Nc1cccc(-c2ccoc2C(=O)NNC(=O)c2ccc(O)c(C#N)c2)c1 [Compound C, reference compound]	
0.74 nM	C[C@H](Nc1ccc(-c2ccoc2C(=O)NNC(=O)c2ccc(O)c(C#N)c2)cc1)c1ccc(F)cc1 [Example 79, 3-(4-{[(1S)-1-(4-fluorophenyl)ethyl]amino}phenyl)-2-furan carboxylic acid-2-(3-cyano-4-hydroxybenzoyl)hydrazide]	
